Test: gradient 5% acetonitrile 3 min, to 50% in 2 min, to 85% in 15 min, held 3 min, 100 µL/min
Conditions: column: Zorbax Extend-C18 2.1 x 50 mm; eluents: water / acetonitrile, 0.1% formic acid
Procedure, shortened: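 The mobile phases were water and acetonitrile, each with 0.1% formic acid, pumped at 100 μL/min through a Zorbax Extend-C18 column (2.1 × 50 mm, 1.8 μm). Pure standards were injected as mixtures of ~100 molecules and detected by a quadrupole time-of-flight mass spectrometer in positive and negative ionization mode. Retention time came from computationally picked adduct peaks, each inspected by hand.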

Compound	RP-LC retention time
O=C(NCc1ccccc1F)c1ccc(NC(=O)C2CCC2)cc1N1CCOCC1	853 s
Cc1ccnc(NC(=O)C2CCCN(S(=O)(=O)c3c[nH]c(C(=O)N4CCCC4)c3)C2)c1 (configuration not stated)	614 s
O=S(=O)(Nc1cccn2ncnc12)c1ccc(Cl)cc1	770 s
Cc1nn(-c2ccccc2)c2c1N(CC(=O)Nc1ccc(F)cc1F)C(=O)CS2	852 s
COc1ccc(OC)c(NS(=O)(=O)c2ccc3c(c2)C(=O)N(C)c2ncccc2O3)c1	872 s
CC(C)Oc1ccc(CNC(=O)C2CCN(c3nnc4ccccn34)CC2)cc1	685 s
COc1ccccc1N1CCN(c2cc(SCC(=O)NCCCc3ccccc3)ncn2)CC1	959 s
CCC(=O)Nc1cc(C(=O)NCc2ccc(N3CCOCC3)cc2)c2ccc(C)nc2c1	585 s
COc1cc(OC)c(Nc2cc(C)nc3nc(-c4ccc(C)cc4)nn23)cc1Cl	1060 s
Cc1ccc(C)c(Nc2c(-c3ccc(O)cc3)nc3ncccn23)c1	664 s
COc1ccc(Cc2nc(-c3ccc4c(c3)ncn4CCC(=O)N3CCCC3)no2)cc1	716 s
O=S(=O)(c1ccc2nc(N3CCN(Cc4ccc5c(c4)OCO5)CC3)cnc2c1)N1CCCCC1	728 s
CCc1nn(C)c(=O)c2cc(S(=O)(=O)NC(C)c3ccccc3)cn12 (configuration not stated)	870 s
COCCn1nc(N2CCCC(NS(=O)(=O)c3c(C)c(C)cc(C)c3C)C2)ccc1=O (configuration not stated)	875 s
CC(=O)N[C@@H]1CN(C(=O)c2ccc3c(c2)OCO3)C[C@H]1CO	571 s
COc1ccc(-c2nnc(COc3ccc(NC(=O)c4cccnc4)cc3)o2)cc1	711 s
O=C(Cn1c(-c2cnccn2)nc2ccccc21)N1CCN(C(=O)c2ccco2)CC1	615 s
COc1ccccc1N1CCN(C(=O)CN2C(=O)NC(c3ccc(Cl)cc3)C3=C2COC3=O)CC1 (configuration not stated)	770 s
CCOC(=O)C1CCN(C(=O)c2cn3c(n2)CN(CC)CC3)CC1	575 s
CC(C)CCNC(=O)C1CCN(Cc2cc3ccccc3n2Cc2cccc(Cl)c2)CC1	845 s
COCCN(C)C(=O)c1cn(C2CN(S(=O)(=O)c3c(C)noc3C)C2)nn1	703 s
CC1=C(c2ccc(F)cc2)S(=O)(=O)N=C1N1CCCN(C(=O)CC(C)C)CC1	814 s

Compound	RP-LC retention time
Cc1oc(C)c(S(=O)(=O)NC2CC2)c1C(=O)NCc1ccc2c(c1)OCO2	830 s
CCOC(=O)c1ccc(NC(=O)Cc2csc3nc(-c4ccc(OC)c(OC)c4)cn23)cc1	756 s
Cn1nc(-c2nc(-c3ccccc3F)no2)c2c1CCN(C(=O)C1(c3ccccc3)CC1)C2	1010 s
O=C(C1CCN(c2ncnc3c2oc2ccccc23)CC1)N1CCN(c2cccc(Cl)c2)CC1	930 s
Cc1ccccc1Nc1c(-c2ccc(N(C)C)cc2)nc2ncccn12	725 s
CC(NC(=O)c1ccc2nc(-c3ccccc3)cn2c1)c1ccccn1 (configuration not stated)	572 s
CCOc1ccc(-c2nc(Cn3nnc(C(=O)Nc4ccccc4OC)c3C)c(C)o2)cc1	1150 s
COc1cc(OC)cc(C(=O)N2CCC3(CC2)N=C(c2ccc(Br)cc2)C(=O)N3)c1	907 s
CCn1c(=O)c(C)nc2cc(-c3noc(-c4ccc(Br)cc4)n3)ccc21	1270 s
CCN(C(=O)c1cc(OC)cc(OC)c1)c1nc(-c2ccccc2)cs1	1260 s
O=C(Cn1c2ccccc2c2ncn(Cc3nc(C4CC4)no3)c(=O)c21)NC1CCCC1	819 s
COc1ccc(N2CCN(c3cc(SCC(=O)NCc4ccc(F)cc4)ncn3)CC2)cc1	830 s
CCNC(=O)C1CCCN(c2nc3ncn(CC(=O)Nc4ccc(Cl)cc4F)c(=O)c3s2)C1 (configuration not stated)	709 s
O=C(c1nc(-c2ccnc(N3CCOCC3)c2)no1)N1CCN(C2CCCCC2)CC1	608 s
COc1ccc(OC)c(CNC(=O)C2c3ccccc3C(=O)N3CCc4ccccc4C23)c1 (configuration not stated)	867 s
Cc1ccc(C(=O)N2CCc3sc(C(=O)N4CCN(C(C)C)CC4)cc3C2)cc1	625 s
Cc1noc(C2(NC(=O)Cc3ccc(F)cc3)CCCCC2)n1	837 s
O=C(Nc1ccccc1)N1CC(Oc2ccc(-c3nc(-c4ccccc4)no3)cc2)C1	1150 s
COc1ccccc1Nc1c(-c2ccc(Cl)cc2)nc2cnccn12	1020 s
Cc1ccc(NC(=O)Cc2nnc(-c3cnccn3)o2)cc1Cl	756 s
N#Cc1ccc(C(=O)N2CCN(c3nc(CN4CCCCC4)cs3)CC2)cc1	614 s
O=C(Cc1ccc(Cl)cc1)Nc1cc(-c2ccccn2)no1	850 s

Compound	RP-LC retention time
CCN1CCN(CC2CCN(S(=O)(=O)Cc3cccc(Cl)c3)CC2)CC1	618 s
COc1cc(=O)c(C(=O)Nc2cccc(SC)c2)nn1-c1cccc(F)c1	805 s
CC(=O)Oc1ccc(C2=NN(C(C)=O)C(c3ccc(F)cc3)O2)c(OC(C)=O)c1 (configuration not stated)	936 s
c1cc2nnc(C3CC3)n2nc1N1CCCC1	775 s
COc1cccc(NC(=O)Cn2c(C)cc(-c3nnc(-c4ccc(F)cc4)o3)c2C)c1	943 s
COc1ccc(NC(=O)CCc2nc(-c3ccc(N4CCCC4)cc3)no2)cc1OC	936 s
CCCCOc1ccc(NC(=O)c2oc3cc(C)c(Cl)cc3c2C)c2cccnc12	1030 s
Cn1nnc2ccc(-c3noc(CNC(=O)c4cccs4)n3)cc21	712 s
CCOC(=O)c1nc(N2CCN(Cc3ccccc3)CC2)c2ccccc2n1	623 s
CCc1nn(CC(=O)NCCc2c[nH]c3ccccc23)c(=O)c2cc3sccc3n12	842 s
Cc1cc(C)n(-c2ccnc(N3CCC(C(=O)N4CCSCC4)CC3)n2)n1	854 s
NC(=O)[C@@H]1C[C@H](Oc2cccnc2)CN1C(=O)Cn1c(=O)oc2ccccc21	564 s
c1ccc(-c2nnc(-c3ccccn3)s2)nc1	850 s
CN(C)CCNC(=O)c1ccc(CS(=O)c2ccc(F)cc2)o1 (configuration not stated)	569 s
COc1ccc(N2CC(c3noc(-c4ccc5c(c4)OCO5)n3)CC2=O)cc1OC (configuration not stated)	770 s
O=C(CCc1nc(-c2ccc(N3CCCC3)cc2)no1)NCCC1=CCCCC1	1170 s
O=S(=O)(c1ccc(Br)cc1)N1CCNCC1	549 s
COC(=O)c1ccc2c(=O)n(Cc3ccccc3)c(N3CCOCC3)nc2c1	953 s
Cc1sc(-c2nnc(C3CC3)o2)cc1NC(=O)c1cccc(N(C)C)c1	896 s
CCSc1nnc(NC(=O)Cn2nc(-n3cccn3)ccc2=O)s1	653 s
CSc1ccc(CNC(=O)CSc2cc(N3CCCCC3)ncn2)cc1	767 s
Cc1ccc(NC(=O)N(C)CCc2noc(COc3ccccc3)n2)cc1C	947 s

Compound	RP-LC retention time
CC1(C)CCC(NC(=O)[C@@H](N)CCC(=O)O)CC1	654 s
COc1ccc(NC(=O)Cc2c(C)nn(-c3nc(-c4ccccc4)cs3)c2C)c(OC)c1	1160 s
CC(C(=O)NCCc1c[nH]c2ccccc12)C1CCN(S(=O)(=O)c2ccc(Cl)s2)CC1 (configuration not stated)	988 s
Cc1ccc(CNS(=O)(=O)c2cc3c(s2)CCN(C(=O)C2CC2)C3)cc1	847 s
O=C(c1ccc(Br)cc1)N1CCN(c2cc(-c3ccccc3)[nH]n2)CC1	849 s
O=C(c1ccco1)N1CCC(n2c(-c3ccoc3)nc3cccnc32)C1 (configuration not stated)	650 s
COc1ccc(NC(=O)c2[nH]c3cc(C)sc3c2CN(C)C)cc1	666 s
O=C(c1ccc(Cl)s1)N1CCc2nc(-c3ccc(Cl)cc3)ncc2C1	1210 s
COc1ccc(-c2cn3ccn(-c4ccc(F)cc4)c(=O)c3n2)cc1	776 s
CCOC(=O)Cc1csc(NC(=O)C2CC(=O)N(c3n[nH]c4ccccc34)C2)n1 (configuration not stated)	689 s
CCc1nc(N2CCC(C(=O)NCc3cccc(C(F)(F)F)c3)CC2)c2c(C)scc2n1	786 s
Cc1cc(F)ccc1NC(=O)C1CCCN1S(=O)(=O)c1cc2c(cc1C)NC(=O)CO2 (configuration not stated)	761 s
Cc1ccc(-n2cc3c(c(C(=O)NC4CC4)c2=O)CC(C)(C)CC3=O)cc1	867 s
COc1ccc2c(CCNC(=O)c3ccccc3OC)c[nH]c2c1	788 s
Cc1ccc(NC(=O)C2CCN(S(C)(=O)=O)c3ccccc3O2)cc1Cl (configuration not stated)	985 s
CCc1nnc(-c2cn(CC(=O)NCc3ccc(SC)cc3)c3ccccc23)o1	880 s
CC(C)n1c(=O)oc2cc(-c3noc(-c4cc(F)cc(F)c4)n3)ccc21	1220 s
CCn1ncn2cc(S(=O)(=O)Nc3ccccc3F)cc2c1=O	830 s
CCCC(=O)Nc1nc(-c2ccc(Br)s2)cs1	993 s
O=C(c1ccco1)N1CCN(S(=O)(=O)c2cccc(-c3nc(-c4ccccc4)no3)c2)CC1	1060 s
COc1ccc(CN2C=C(C(=O)OCc3ccccc3OC)C(C)=NS2(=O)=O)cc1	1120 s
